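1) Cells in 96-well plates. 2) Compound, 48 h, 5 concentrations. 3) Linear interpolation between surrounding doses. 4) Unreached endpoint = highest concentration. At the GI50, growth is halved.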 Calls of active or inactive are those of the source. Rule as the data show it: active = GI50 up to about 1.1 µM and inactive = higher.
Key:
Test in all cases: NCI anticancer screen, dose series, 48 h
[1] = test system: SK-OV-3
[2] = test system: SW-620
[3] = test system: KM12
[4] = test system: TK-10
[5] = test system: NCI-H522
[6] = test system: OVCAR-4
[7] = test system: OVCAR-8
[8] = test system: SF-539
[9] = test system: OVCAR-5
[10] = test system: 786-0
[11] = test system: SNB-19
[12] = test system: ACHN
[13] = test system: CAKI-1
[14] = test system: U-251
[15] = test system: SNB-75
[16] = test system: COLO 205
[17] = test system: HL-60
[18] = test system: HT-29
[19] = test system: SR

Measured: GI50

Cc1cc2[nH]c3c(C#N)c(-c4ccccc4)c(/N=N/c4cccc(C(F)(F)F)c4)c(=O)n3c2cc1C
inactive: [1] 32.4 µM | [2] 35.8 µM | [3] 31.6 µM | [4] 50.4 µM | [5] 16 µM | [6] 39.5 µM | [7] 26.1 µM | [8] 97.5 µM | [9] > 100 µM | [10] 35.8 µM | [11] 35.2 µM | [12] 37.5 µM | [13] 32 µM | [14] 39.3 µM | [15] > 100 µM | [16] 42.2 µM

CC(=O)Nc1ccc(/C=c2\sc3nnc(/C=C/c4ccccc4)n3c2=O)cc1
inactive: [1] > 50 µM | [2] > 50 µM | [3] > 50 µM | [4] > 50 µM | [5] > 50 µM | [17] > 50 µM | [6] > 50 µM | [7] > 50 µM | [8] > 50 µM | [9] > 50 µM | [10] > 50 µM | [11] > 50 µM | [12] > 50 µM | [13] > 50 µM | [14] > 50 µM | [15] > 50 µM | [16] > 50 µM

CC(NC(=O)c1ccccc1)C(=O)N(Cc1ccccc1)Cc1ccccc1 (stereo unspecified)
inactive: [1] 33.7 µM | [2] 51.1 µM | [3] 26.6 µM | [4] 60.1 µM | [5] 23.7 µM | [18] 37.1 µM | [6] 31.2 µM | [8] 55.3 µM | [9] 33 µM | [10] 37.6 µM | [19] 29.9 µM | [11] 36.1 µM | [12] 31.7 µM | [13] 34.9 µM | [14] 29.8 µM | [15] > 100 µM | [16] 19.2 µM

CC(C)(C)CC(C)(C)c1cc2c(O)c(c1)Cc1cc(C(C)(C)CC(C)(C)C)cc(c1O)Cc1cc(C(C)(C)CC(C)(C)C)cc(c1O)Cc1cc(C(C)(C)CC(C)(C)C)cc(c1O)C2
inactive: [2] > 100 µM | [3] > 100 µM | [4] > 100 µM | [5] > 100 µM | [17] > 100 µM | [18] > 100 µM | [6] > 100 µM | [7] > 100 µM | [8] > 100 µM | [9] > 100 µM | [10] > 100 µM | [11] > 100 µM | [12] > 100 µM | [14] > 100 µM | [15] > 100 µM | [16] > 100 µM

CN(C)CCNc1nc(-c2cccs2)cc(-c2cccs2)n1
inactive: [1] > 10 µM | [2] 13.9 µM | [3] 12.1 µM | [4] 14.9 µM | [5] > 10 µM | [18] 7.5 µM | [6] > 10 µM | [7] 9.84 µM | [8] 15.1 µM | [9] 9.18 µM | [10] 15.2 µM | [19] 2.84 µM | [13] > 10 µM | [14] 10.7 µM | [15] 23.8 µM | [16] 12.1 µM

NC(=O)NCc1c(C(N)=O)ncn1Cc1ccccc1
inactive: [1] > 100 µM | [2] > 100 µM | [4] > 100 µM | [17] > 100 µM | [18] > 100 µM | [6] > 100 µM | [7] > 100 µM | [8] > 100 µM | [10] > 100 µM | [11] > 100 µM | [12] > 100 µM | [13] > 100 µM | [14] > 100 µM | [15] > 100 µM | [16] > 100 µM

CSC(=S)N(C)NC(=O)c1cccc(C(=O)NN(C)C(=S)SC)n1
inactive: [2] 32.7 µM | [3] 2.89 µM | [5] 15.2 µM | [17] 5.7 µM | [18] 3.06 µM | [6] 10.3 µM | [7] 21.8 µM | [8] 24.5 µM | [9] 4.88 µM | [10] 19.4 µM | [19] 4.97 µM | [11] 26.4 µM | [12] > 100 µM | [14] 18.6 µM | [15] 34.3 µM | [16] > 100 µM

O=C(O)C1=C(O)C(C(=O)O)C23CCCCCCCCCCC12C(C(=O)O)C(O)=C3C(=O)O (stereo unspecified)
inactive: [1] > 100 µM | [2] > 100 µM | [3] > 100 µM | [4] > 100 µM | [5] > 100 µM | [17] > 100 µM | [18] > 100 µM | [7] > 100 µM | [8] > 100 µM | [9] > 100 µM | [10] > 100 µM | [19] > 100 µM | [11] > 100 µM | [12] > 100 µM | [14] > 100 µM | [16] > 100 µM

Cc1ccc(/C=C/C(=O)C(C)C)cc1
inactive: [1] 74.3 µM | [2] 47.5 µM | [3] 48.8 µM | [4] > 100 µM | [5] 24.8 µM | [18] 37.3 µM | [6] > 100 µM | [7] 96.8 µM | [9] 18.4 µM | [10] 55 µM | [19] 31.8 µM | [11] 84.7 µM | [12] 83.8 µM | [14] 24.5 µM | [15] 35.2 µM | [16] > 100 µM

COC(=O)CC1NC(=O)C1C1(C)OCCO1 (stereo unspecified)
inactive: [2] > 100 µM | [4] > 100 µM | [17] > 100 µM | [18] > 100 µM | [6] > 100 µM | [7] > 100 µM | [8] > 100 µM | [10] > 100 µM | [19] > 100 µM | [11] > 100 µM | [12] > 100 µM | [14] > 100 µM | [15] 28 µM | [16] > 100 µM

C=C1CC[C@@H]2C(C)(C)C(O)CCC2(C)C1COc1ccc2ccc(=O)oc2c1 (stereo partly specified)
inactive: [1] 23.4 µM | [2] 22.1 µM | [3] 15.6 µM | [4] 19.8 µM | [5] 16.3 µM | [17] 15.1 µM | [18] 18.9 µM | [6] 13.5 µM | [7] 17.2 µM | [8] 16.8 µM | [10] 21.5 µM | [19] 23.6 µM | [11] 18.3 µM | [12] 16.8 µM | [14] 17.7 µM | [15] 18 µM | [16] 14.9 µM

CCn1c2ccccc2c2ccc3c(c21)C(=O)c1ccccc1C3=O
inactive: [1] > 100 µM | [2] > 100 µM | [5] > 100 µM | [17] 36.8 µM | [18] > 100 µM | [6] > 100 µM | [7] > 100 µM | [8] > 100 µM | [10] > 100 µM | [19] 10.4 µM | [11] > 100 µM | [12] > 100 µM | [14] > 100 µM | [15] > 100 µM | [16] 55.8 µM
